# Reference: ChEMBL document CHEMBL1201862, “PubChem BioAssay data set” (2004)
#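 Step 1: Grow cells in 96-well plates. Step 2: Expose to compound for 48 hours at 5 concentrations. Step 3: Interpolate endpoints linearly; if unreached, use highest concentration. At the GI50, growth is halved.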 The source made the active and inactive calls. Cut-off read from the data, not from the text of the source: active = GI50 up to about 1.1 µM and inactive = higher.
# What was measured:
# Assay in all cases: NCI anticancer screen, dose series, 48 h
# TK-10 = system: TK-10
# HCC 2998 = system: HCC 2998
# ACHN = system: ACHN
# K562 = system: K562
# UACC-62 = system: UACC-62
# OVCAR-5 = system: OVCAR-5
# MDA-MB-435 = system: MDA-MB-435
# UO-31 = system: UO-31
# NCI/ADR-RES = system: NCI/ADR-RES
# NCI-H522 = system: NCI-H522
# HT-29 = system: HT-29
# SNB-19 = system: SNB-19
# COLO 205 = system: COLO 205
# BT-549 = system: BT-549
# OVCAR-4 = system: OVCAR-4
# SW-620 = system: SW-620
# DU-145 = system: DU-145
# KM12 = system: KM12
# SK-OV-3 = system: SK-OV-3
# SF-539 = system: SF-539
# A549 = system: A549
# M14 = system: M14
# MDA-N = system: MDA-N
# EKVX = system: EKVX
# SK-MEL-5 = system: SK-MEL-5
# OVCAR-8 = system: OVCAR-8
# Malme-3M = system: Malme-3M
# MCF7 = system: MCF7
# HCT-15 = system: HCT-15
# PC-3 = system: PC-3
# HCT-116 = system: HCT-116
# UACC-257 = system: UACC-257
# MOLT-4 = system: MOLT-4
# MDA-MB-231 = system: MDA-MB-231
# CAKI-1 = system: CAKI-1
# 786-0 = system: 786-0
# SK-MEL-28 = system: SK-MEL-28
# SK-MEL-2 = system: SK-MEL-2
# OVCAR-3 = system: OVCAR-3
# NCI-H23 = system: NCI-H23
# T47D = system: T47D
# U-251 = system: U-251
# CCRF-CEM = system: CCRF-CEM
# NCI-H460 = system: NCI-H460
# NCI-H226 = system: NCI-H226
# IGROV-1 = system: IGROV-1
# A498 = system: A498
# HOP-92 = system: HOP-92
# HL-60 = system: HL-60
# SF-268 = system: SF-268
# SN12C = system: SN12C
# SF-295 = system: SF-295
# LOX IMVI = system: LOX IMVI
# Hs-578T = system: Hs-578T
# RXF 393 = system: RXF 393
# SNB-75 = system: SNB-75
# RPMI-8226 = system: RPMI-8226
# HOP-62 = system: HOP-62
smiles,measurement,setting,value
CCn1c2ccccc2n2c(=O)c3c(c(C#N)c12)CCCC3,GI50,TK-10,> 100 µM (inactive)
same,GI50,HCC 2998,> 100 µM (inactive)
same,GI50,ACHN,> 100 µM (inactive)
same,GI50,K562,> 100 µM (inactive)
same,GI50,UACC-62,> 100 µM (inactive)
same,GI50,OVCAR-5,> 100 µM (inactive)
same,GI50,MDA-MB-435,> 100 µM (inactive)
same,GI50,UO-31,93.5 µM (inactive)
same,GI50,NCI/ADR-RES,> 100 µM (inactive)
same,GI50,NCI-H522,> 100 µM (inactive)
same,GI50,HT-29,> 100 µM (inactive)
same,GI50,SNB-19,> 100 µM (inactive)
same,GI50,COLO 205,> 100 µM (inactive)
same,GI50,BT-549,> 100 µM (inactive)
same,GI50,OVCAR-4,> 100 µM (inactive)
same,GI50,SW-620,> 100 µM (inactive)
same,GI50,DU-145,> 100 µM (inactive)
same,GI50,KM12,> 100 µM (inactive)
same,GI50,SK-OV-3,> 100 µM (inactive)
same,GI50,SF-539,> 100 µM (inactive)
same,GI50,A549,> 100 µM (inactive)
same,GI50,M14,> 100 µM (inactive)
same,GI50,MDA-N,> 100 µM (inactive)
same,GI50,EKVX,> 100 µM (inactive)
same,GI50,SK-MEL-5,> 100 µM (inactive)
same,GI50,OVCAR-8,> 100 µM (inactive)
same,GI50,Malme-3M,> 100 µM (inactive)
same,GI50,MCF7,> 100 µM (inactive)
same,GI50,HCT-15,> 100 µM
same,GI50,PC-3,> 100 µM (inactive)
same,GI50,HCT-116,> 100 µM (inactive)
same,GI50,UACC-257,> 100 µM (inactive)
same,GI50,MOLT-4,> 100 µM (inactive)
same,GI50,MDA-MB-231,> 100 µM (inactive)
same,GI50,CAKI-1,> 100 µM (inactive)
same,GI50,786-0,> 100 µM (inactive)
same,GI50,SK-MEL-28,> 100 µM (inactive)
same,GI50,SK-MEL-2,> 100 µM (inactive)
same,GI50,OVCAR-3,> 100 µM (inactive)
same,GI50,NCI-H23,> 100 µM (inactive)
same,GI50,T47D,> 100 µM (inactive)
same,GI50,U-251,> 100 µM (inactive)
same,GI50,CCRF-CEM,> 100 µM (inactive)
same,GI50,NCI-H460,> 100 µM (inactive)
same,GI50,NCI-H226,> 100 µM (inactive)
same,GI50,IGROV-1,> 100 µM (inactive)
same,GI50,A498,> 100 µM (inactive)
same,GI50,HOP-92,> 100 µM (inactive)
same,GI50,HL-60,> 100 µM (inactive)
same,GI50,SF-268,> 100 µM (inactive)
same,GI50,SN12C,> 100 µM (inactive)
same,GI50,SF-295,> 100 µM (inactive)
same,GI50,LOX IMVI,> 100 µM (inactive)
same,GI50,Hs-578T,> 100 µM (inactive)
CC(=O)O[C@H]1CC[C@@]2(C)C(=CC[C@@H]3[C@@H]2CC[C@]2(C)C(=N/O)/C(=C/c4ccc([N+](=O)[O-])cc4)C[C@@H]32)C1,GI50,TK-10,8.43 µM (inactive)
same,GI50,ACHN,6.22 µM (inactive)
same,GI50,K562,3.1 µM (inactive)
same,GI50,UACC-62,1.76 µM (inactive)
same,GI50,RXF 393,32.4 µM (inactive)
same,GI50,MDA-MB-435,3.32 µM (inactive)
same,GI50,UO-31,4.44 µM (inactive)
same,GI50,NCI/ADR-RES,6.84 µM (inactive)
same,GI50,SNB-75,10 µM (inactive)
same,GI50,NCI-H522,2.08 µM (inactive)
same,GI50,HT-29,5.43 µM (inactive)
same,GI50,SNB-19,2.94 µM (inactive)
same,GI50,COLO 205,2.29 µM (inactive)
same,GI50,RPMI-8226,1.06 µM (active)
same,GI50,BT-549,2.25 µM (inactive)
same,GI50,OVCAR-4,17 µM (inactive)
same,GI50,SW-620,6.24 µM (inactive)
same,GI50,DU-145,5.26 µM (inactive)
same,GI50,KM12,5.22 µM (inactive)
same,GI50,SK-OV-3,11.9 µM (inactive)
same,GI50,SF-539,29.3 µM (inactive)
same,GI50,A549,4.55 µM (inactive)
same,GI50,HOP-62,17.3 µM (inactive)
same,GI50,M14,4.09 µM (inactive)
same,GI50,MDA-N,3.37 µM (inactive)
same,GI50,SK-MEL-5,1.69 µM (inactive)
same,GI50,Malme-3M,4.61 µM (inactive)
same,GI50,HCT-15,4.6 µM
same,GI50,PC-3,2.72 µM (inactive)
same,GI50,HCT-116,3.97 µM (inactive)
same,GI50,UACC-257,0.0304 µM (active)
same,GI50,MOLT-4,3.58 µM (inactive)
same,GI50,MDA-MB-231,8.89 µM (inactive)
same,GI50,CAKI-1,1.39 µM (inactive)
same,GI50,786-0,4.89 µM (inactive)
same,GI50,SK-MEL-28,11 µM (inactive)
same,GI50,SK-MEL-2,3.53 µM (inactive)
same,GI50,OVCAR-3,2.47 µM (inactive)
same,GI50,NCI-H23,2.31 µM (inactive)
same,GI50,T47D,0.338 µM (active)
same,GI50,CCRF-CEM,3.76 µM (inactive)
same,GI50,NCI-H460,> 100 µM (inactive)
same,GI50,NCI-H226,7.66 µM (inactive)
same,GI50,IGROV-1,12.8 µM (inactive)
same,GI50,A498,4.71 µM (inactive)
same,GI50,HOP-92,11.9 µM (inactive)
same,GI50,HL-60,2.33 µM (inactive)
same,GI50,SF-268,3.66 µM (inactive)
same,GI50,SN12C,5.5 µM (inactive)
same,GI50,SF-295,3.74 µM (inactive)
same,GI50,LOX IMVI,6.52 µM (inactive)
same,GI50,Hs-578T,2.39 µM (inactive)
